Measurements reported in patent publication US8426448B2, “1,5-diphenyl-pyrrolidin-2-one compounds as CB-1 ligands” (Eli Lilly and Company, priority 2008, dated 2013).
Structures can show the parent of a compound that is named as a salt.

Columns and labels:
rCB-1 = target: T1, rCB-1 (Rattus norvegicus, UniProt P20272); assay: rCB1-CHO antagonist mode SPA GTP-γ-35S binding assay; type: biochemical; details: antagonist mode vs methanandamide; read-out: rCB-1 SPA GTPγS CHO Membrane Antagonist Kb
T1 construct: purchased Applied Cell Sciences, Rockville, Md; host or cells: CHO cell membranes
Protocol: (§1) Compounds of the present invention may be tested for functional activity at the CB-1 and CB-2 receptors in both agonist and antagonist modes using SPA (Scintillation Proximity Assay) based GTP-γ-^35S binding assays. All assay components are prepared in assay buffer (20 mM HEPES, 100 mM NaCl, 5 mM MgCl2, pH 7.4) at room temperature. Semi-log dilutions of test compound are prepared in assay buffer containing BSA (0.125% final conc.) for the agonist mode assays. For the antagonist mode assays, test compounds are prepared in the same manner but also include an 80% efficacious dose of a full agonist (methanandamide). GTP-γ^35S binding for the antagonist assay may be measured in a 96 well format using a modification of an antibody capture technique previously described. (DeLapp, N W, et al. (1999) J Pharmacol Exp Ther 289:946-955.) The CB-2 receptor agonist activity may be measured using a similar method using hCB2-Sf9 membranes. The CB-1 receptor agonist activity may be measured using a whole membrane capture technique using hCB1-CHO membranes. All incubations are done at room temperature.
hCB1-CHO or rCB1-CHO membranes (Applied Cell Sciences, Rockville, Md.) and GDP (1 μM final) are added to ice cold assay buffer and homogenized. […] Plates are then centrifuged at 700×g for 10 min. and the radioactivity counted.
Data are analyzed as follows: Background is subtracted from all wells. […] Percent antagonist inhibition is calculated by first normalizing the data to the signal generated by a saturating concentration of the full agonist (methanandamide). Then the data are analyzed using a 4-parameter logistic reduced fit (Activity Base™ and XLFit3™ from IDBS, Emeryville, Calif.). Kb values are determined using a modification of the Cheng-Prusoff relationship: Kb=IC50/(1+[agonist]/EC50), where “IC50” is determined from a four parameter fit of displacement curves, “[agonist]” is the agonist challenge concentration (nM), and “EC50” is determined from a four parameter fit of a full agonist concentration response curve (Cheng and Prusoff 1973). […]

CYP3A = assay: Human CYP fingerprinting, ketoconazole inhibition; type: in vitro ADME; details: 4 μM, human liver microsomes, 30 min, 10 μM ketoconazole
Protocol: (§2) CYP fingerprinting is well established technique and is used as an indication of potential risk of drug-drug interactions in the pharmaceutical sciences. Compounds of the present invention may be assayed by well known methods, essentially as follows: Compounds are incubated at 37° C. at a final concentration of 4 μM with pooled, mixed gender, human liver microsomes and 1 mM NADPH (Nicotine Adenine Dinucleotide Phosphate) (final conc.) for 0 and 30 min. without any CYP inhibitor and with each CYP inhibitor in separate incubations for 30 min. Each inhibitor is specific for an individual cytochrome P450. The specific inhibitors used for CYPs 2C9, 2D6 and 3A were sulfaphenazole, quinidine and ketoconazole, respectively. Ketoconazole (CYP3A) is made up at 25 mM in DMSO and then diluted in buffer to a final concentration of 10 μM. Quinidine (CYP2D6) is made up at 5 mM in 50/50 acetonitrile/water and then diluted in buffer to a final concentration of 10 μM. Sulfaphenazole (CYP2C9) is made up at 100 mM in DMSO and then diluted in buffer to a final concentration of 5 μM. Samples are analyzed by LC-MS in positive or negative electrospray mode using a Waters Acquity Ultra Performance LC coupled to a MicroMass Q-T of-2 mass spectrometer.
(§3) Data are analyzed using MetaboLynx™ version 4.1. […]

CYP2D6 = target: T2, CYP2D6 (Homo sapiens, UniProt P10635); assay: Human CYP fingerprinting, quinidine inhibition; type: in vitro ADME; details: 4 μM, human liver microsomes, 30 min, 10 μM quinidine
T2 construct: pooled, mixed gender, human liver microsomes; from tissue; host or cells: pooled, mixed gender human liver microsomes
Protocol: as §2, §3

hCB-2 = target: T3, hCB-2 (Homo sapiens, UniProt P34972); assay: hCB2-Sf9 antagonist mode SPA GTP-γ-35S binding assay; type: biochemical; details: antagonist mode vs methanandamide; read-out: hCB-2 SPA GTPγS Sf9 Membrane Antagonist Kb
T3 construct: purchased Perkin Elmer, Boston, Mass; host or cells: Sf9 cell membranes
Protocol: Compounds of the present invention may be tested for functional activity at the CB-1 and CB-2 receptors in both agonist and antagonist modes using SPA (Scintillation Proximity Assay) based GTP-γ-^35S binding assays. All assay components are prepared in assay buffer (20 mM HEPES, 100 mM NaCl, 5 mM MgCl2, pH 7.4) at room temperature. Semi-log dilutions of test compound are prepared in assay buffer containing BSA (0.125% final conc.) for the agonist mode assays. For the antagonist mode assays, test compounds are prepared in the same manner but also include an 80% efficacious dose of a full agonist (methanandamide). GTP-γ^35S binding for the antagonist assay may be measured in a 96 well format using a modification of an antibody capture technique previously described. (DeLapp, N W, et al. (1999) J Pharmacol Exp Ther 289:946-955.) The CB-2 receptor agonist activity may be measured using a similar method using hCB2-Sf9 membranes. The CB-1 receptor agonist activity may be measured using a whole membrane capture technique using hCB1-CHO membranes. All incubations are done at room temperature. […]
Data are analyzed as follows: Background is subtracted from all wells. […] Percent antagonist inhibition is calculated by first normalizing the data to the signal generated by a saturating concentration of the full agonist (methanandamide). Then the data are analyzed using a 4-parameter logistic reduced fit (Activity Base™ and XLFit3™ from IDBS, Emeryville, Calif.). Kb values are determined using a modification of the Cheng-Prusoff relationship: Kb=IC50/(1+[agonist]/EC50), where “IC50” is determined from a four parameter fit of displacement curves, “[agonist]” is the agonist challenge concentration (nM), and “EC50” is determined from a four parameter fit of a full agonist concentration response curve (Cheng and Prusoff 1973). Mean Kb values are calculated as a mean of at least three independent determinations±standard error of the mean (SEM). […]

hCB-1 = hCB-1 (Homo sapiens, UniProt P21554); assay: hCB1-CHO agonist mode SPA GTP-γ-35S binding assay; type: biochemical; set-up: purchased Applied Cell Sciences, Rockville, Md; host or cells: CHO cell membranes; details: inverse agonism, read-out: hCB-1 SPA GTPγS CHO Membrane Agonist Relative EC50 inverse
Protocol: as §1
hCB1-CHO membrane, GDP (1 μM final conc.), and saponin (10 μg/mL final conc., Sigma, St Louis, Mo.) are combined and prepared on ice as for the antagonist assays, above. Diluted test compounds, GTP-γ-^35S ([…] final conc.) and membranes are combined in the assay plate and incubated for 30 min. Then 1 mg/well Wheatgerm Agglutinin SPA beads (GE Healthcare, Piscataway, N.J.) are added, plates are sealed and vortexed and incubate for 1 hr. before spinning and counting in the same fashion as for the antagonist assays, above.
Data are analyzed as follows: Background is subtracted from all wells. Percent agonist efficacy is determine by normalizing agonist/inverse agonist dose response data to the response obtained for a full agonist (methanandamide). Percent antagonist inhibition is calculated by first normalizing the data to the signal generated by a saturating concentration of the full agonist (methanandamide). Then the data are analyzed using a 4-parameter logistic reduced fit (Activity Base™ and XLFit3™ from IDBS, Emeryville, Calif.). Kb values are determined using a modification of the Cheng-Prusoff relationship: Kb=IC50/(1+[agonist]/EC50), where “IC50” is determined from a four parameter fit of displacement curves, “[agonist]” is the agonist challenge concentration (nM), and “EC50” is determined from a four parameter fit of a full agonist concentration response curve (Cheng and Prusoff 1973). Mean Kb values are calculated as a mean of at least three independent determinations±standard error of the mean (SEM). […]

T1 sequence (P20272 whole entry): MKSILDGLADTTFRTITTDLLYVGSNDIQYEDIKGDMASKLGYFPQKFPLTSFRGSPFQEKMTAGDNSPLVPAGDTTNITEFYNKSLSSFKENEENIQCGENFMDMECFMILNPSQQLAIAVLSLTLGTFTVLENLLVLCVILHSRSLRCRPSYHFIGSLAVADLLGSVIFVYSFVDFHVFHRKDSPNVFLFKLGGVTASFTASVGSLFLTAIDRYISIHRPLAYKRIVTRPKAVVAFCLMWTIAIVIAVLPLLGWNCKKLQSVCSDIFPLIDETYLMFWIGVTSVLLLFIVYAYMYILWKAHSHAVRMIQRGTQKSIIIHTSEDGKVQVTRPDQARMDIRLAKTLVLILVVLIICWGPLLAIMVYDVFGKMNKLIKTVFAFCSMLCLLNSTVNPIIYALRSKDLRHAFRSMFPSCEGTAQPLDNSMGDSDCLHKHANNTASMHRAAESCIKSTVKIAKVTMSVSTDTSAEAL
T2 sequence (P10635 whole entry): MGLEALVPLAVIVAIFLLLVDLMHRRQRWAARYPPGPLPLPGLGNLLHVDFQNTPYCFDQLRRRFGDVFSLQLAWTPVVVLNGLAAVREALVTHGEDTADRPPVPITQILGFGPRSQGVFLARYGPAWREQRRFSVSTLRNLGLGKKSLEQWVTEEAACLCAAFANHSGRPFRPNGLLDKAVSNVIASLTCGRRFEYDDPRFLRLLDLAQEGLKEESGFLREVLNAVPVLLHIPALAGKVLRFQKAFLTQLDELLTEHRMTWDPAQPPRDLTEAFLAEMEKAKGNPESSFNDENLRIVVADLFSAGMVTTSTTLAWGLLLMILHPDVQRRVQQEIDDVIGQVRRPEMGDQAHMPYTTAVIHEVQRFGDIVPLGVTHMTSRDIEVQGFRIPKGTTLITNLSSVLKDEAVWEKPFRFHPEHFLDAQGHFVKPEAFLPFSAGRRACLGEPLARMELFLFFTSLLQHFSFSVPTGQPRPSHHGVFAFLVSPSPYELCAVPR
Sequence of hCB-1 (P21554 whole entry): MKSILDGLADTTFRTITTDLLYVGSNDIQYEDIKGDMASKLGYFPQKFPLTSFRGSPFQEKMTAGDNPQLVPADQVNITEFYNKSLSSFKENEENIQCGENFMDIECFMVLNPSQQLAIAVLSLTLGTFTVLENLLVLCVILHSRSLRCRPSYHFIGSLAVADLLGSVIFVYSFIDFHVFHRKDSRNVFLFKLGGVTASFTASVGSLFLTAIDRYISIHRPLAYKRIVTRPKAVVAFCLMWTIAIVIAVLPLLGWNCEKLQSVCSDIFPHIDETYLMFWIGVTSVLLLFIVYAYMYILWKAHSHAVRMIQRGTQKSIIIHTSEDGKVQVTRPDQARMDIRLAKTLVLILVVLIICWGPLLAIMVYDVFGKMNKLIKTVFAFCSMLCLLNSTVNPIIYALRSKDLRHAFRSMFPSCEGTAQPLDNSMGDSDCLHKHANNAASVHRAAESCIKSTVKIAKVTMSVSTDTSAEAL
T3 sequence (P34972 whole entry): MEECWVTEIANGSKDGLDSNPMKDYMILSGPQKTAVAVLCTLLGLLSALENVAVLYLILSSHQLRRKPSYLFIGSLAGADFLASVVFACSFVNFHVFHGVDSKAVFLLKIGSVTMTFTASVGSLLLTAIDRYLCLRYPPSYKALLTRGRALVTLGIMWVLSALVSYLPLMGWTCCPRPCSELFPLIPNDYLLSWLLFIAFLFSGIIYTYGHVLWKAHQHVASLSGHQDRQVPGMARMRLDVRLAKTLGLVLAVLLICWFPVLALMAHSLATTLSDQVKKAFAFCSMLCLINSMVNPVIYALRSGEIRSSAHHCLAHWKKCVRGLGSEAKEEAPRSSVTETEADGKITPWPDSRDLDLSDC

Kb (rCB-1): 0.196 nM
Risk of Drug Drug Interaction (DDI) CYP3A (CYP3A): Low
Risk of Drug Drug Interaction (DDI) CYP2D6 (CYP2D6): Low
Kb (hCB-2): > 9090 nM
EC50 (hCB-1): 1.27 nM
SMILES: CC(C)(N[C@@H]1C[C@H](c2cccc(C(F)(F)F)c2)N(c2ccc(OC(F)(F)F)cc2)C1=O)c1cccc(C(F)(F)F)n1 [28 HCl salt, (3R,5R)-3-[1-methyl-1-(6-trifluoromethyl-pyridin-2-yl)-ethylamino]-1-(4-trifluoromethoxy-phenyl)-5-(3-trifluoromethyl-phenyl)-pyrrolidin-2-one]
